Measurements published in ChEMBL document CHEMBL2434902, “A new strategy to improve the metabolic stability of lactone: discovery of (20S,21S)-21-fluorocamptothecins as novel, hydrolytically stable topoisomerase I inhibitors” (J Med Chem, 2013).
Active and inactive are the calls of the source. The calls are words filed in the database; no cut-off is given here.

Columns and labels:
[1] = system: HCT-116; assay: Cytotoxicity against human HCT116 cells after 72 hrs by MTT assay; type: functional, cell-based; details: HCT-116, 72 h
[2] = system: A549; assay: Cytotoxicity against human A549 cells after 72 hrs by MTT assay; type: functional, cell-based; details: A549, 72 h
[3] = system: MDA-MB-435; assay: Cytotoxicity against human MDA-MB-435 cells after 72 hrs by MTT assay; type: functional, cell-based; details: MDA-MB-435, 72 h
[4] = target: T1, DNA topoisomerase 1 (Homo sapiens) (UniProt P11387); assay: Inhibition of topoisomerase1 (unknown origin)-mediated supercoiled DNA relaxation at 100 uM after 15 mins by SDS-PAGE analysis
T1 sequence (whole entry): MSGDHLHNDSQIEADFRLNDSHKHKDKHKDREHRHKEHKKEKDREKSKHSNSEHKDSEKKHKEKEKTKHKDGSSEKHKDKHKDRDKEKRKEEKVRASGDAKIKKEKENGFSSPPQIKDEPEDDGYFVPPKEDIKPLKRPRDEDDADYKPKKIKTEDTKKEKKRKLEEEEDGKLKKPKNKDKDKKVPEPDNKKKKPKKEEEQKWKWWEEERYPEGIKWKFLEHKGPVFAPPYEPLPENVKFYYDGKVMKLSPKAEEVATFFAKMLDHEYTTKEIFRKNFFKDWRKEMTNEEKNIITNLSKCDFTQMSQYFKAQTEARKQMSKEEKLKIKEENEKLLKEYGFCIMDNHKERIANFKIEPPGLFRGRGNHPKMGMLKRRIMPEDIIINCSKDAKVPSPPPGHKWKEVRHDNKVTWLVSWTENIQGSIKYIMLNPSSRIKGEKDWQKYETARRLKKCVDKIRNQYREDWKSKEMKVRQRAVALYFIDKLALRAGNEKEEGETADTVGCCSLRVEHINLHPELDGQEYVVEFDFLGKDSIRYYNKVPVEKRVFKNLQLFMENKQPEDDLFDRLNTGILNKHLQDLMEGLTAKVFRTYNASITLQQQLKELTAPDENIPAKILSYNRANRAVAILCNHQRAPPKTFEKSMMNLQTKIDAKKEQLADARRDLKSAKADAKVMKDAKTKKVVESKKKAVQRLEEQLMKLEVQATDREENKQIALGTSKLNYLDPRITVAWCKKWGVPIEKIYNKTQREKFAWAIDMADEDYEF

[5] = system: Mus musculus; assay: Toxicity in BALB/C nude mouse xenografted with human A549 cells assessed as weight loss at 2 mg/kg, ip after 5 days relative to vehicle-treated control; type: organism-based; parameters: dose 2 mg/kg, route intraperitoneal; details: in vivo, 120 h
[6] = system: A549; assay: Antitumor activity against human A549 cells xenografted in BALB/C nude mouse assessed as tumor growth inhibition at 4 mg/kg, ip administered for 5 days measured after day 30 to 33 relative to vehicle-treated control; type: functional; details: route intraperitoneal, read-out: TGI
[7] = system: A549; assay: Antitumor activity against human A549 cells xenografted in ip dosed BALB/C nude mouse assessed as tumor growth inhibition administered for 5 days measured after day 30 to 33 relative to vehicle-treated control; type: functional, organism-based
[8] = system: A549; assay: Antitumor activity against human A549 cells xenografted in BALB/C nude mouse assessed as tumor growth inhibition at 2 mg/kg, ip administered for 5 days measured after day 30 to 33 relative to vehicle-treated control; type: functional; details: route intraperitoneal, read-out: TGI
[9] = system: A549; assay: Cell cycle arrest in human A549 cells assessed as accumulation at S phase at 10 uM after 36 hrs by propidium iodide staining-based flow cytometry; type: functional
[10] = system: A549; assay: Induction of apoptosis in human A549 cells assessed as apoptotic cells at 0.5 uM after 48 hrs by AnnexinV-FITC/propidium iodide staining-based flow cytometry (reference value: 5.23%); type: functional
[11] = system: A549; assay: Induction of apoptosis in human A549 cells assessed as small, round floating cells at 10 uM after 48 hrs by immunostaining relative to control; type: functional, cell-based
[12] = target: T1, DNA topoisomerase 1 (Homo sapiens); assay: Inhibition of topoisomerase1 (unknown origin)-mediated DNA cleavage at 100 uM after 15 mins by SDS-PAGE analysis
[13] = target: DNA topoisomerase 2-alpha (Homo sapiens) (UniProt P11388); assay: Inhibition of topoisomerase2 alpha (unknown origin)-mediated supercoiled DNA relaxation at 100 uM after 30 mins by SDS-PAGE analysis
Chain of DNA topoisomerase 2-alpha (Homo sapiens) (P11388 whole entry): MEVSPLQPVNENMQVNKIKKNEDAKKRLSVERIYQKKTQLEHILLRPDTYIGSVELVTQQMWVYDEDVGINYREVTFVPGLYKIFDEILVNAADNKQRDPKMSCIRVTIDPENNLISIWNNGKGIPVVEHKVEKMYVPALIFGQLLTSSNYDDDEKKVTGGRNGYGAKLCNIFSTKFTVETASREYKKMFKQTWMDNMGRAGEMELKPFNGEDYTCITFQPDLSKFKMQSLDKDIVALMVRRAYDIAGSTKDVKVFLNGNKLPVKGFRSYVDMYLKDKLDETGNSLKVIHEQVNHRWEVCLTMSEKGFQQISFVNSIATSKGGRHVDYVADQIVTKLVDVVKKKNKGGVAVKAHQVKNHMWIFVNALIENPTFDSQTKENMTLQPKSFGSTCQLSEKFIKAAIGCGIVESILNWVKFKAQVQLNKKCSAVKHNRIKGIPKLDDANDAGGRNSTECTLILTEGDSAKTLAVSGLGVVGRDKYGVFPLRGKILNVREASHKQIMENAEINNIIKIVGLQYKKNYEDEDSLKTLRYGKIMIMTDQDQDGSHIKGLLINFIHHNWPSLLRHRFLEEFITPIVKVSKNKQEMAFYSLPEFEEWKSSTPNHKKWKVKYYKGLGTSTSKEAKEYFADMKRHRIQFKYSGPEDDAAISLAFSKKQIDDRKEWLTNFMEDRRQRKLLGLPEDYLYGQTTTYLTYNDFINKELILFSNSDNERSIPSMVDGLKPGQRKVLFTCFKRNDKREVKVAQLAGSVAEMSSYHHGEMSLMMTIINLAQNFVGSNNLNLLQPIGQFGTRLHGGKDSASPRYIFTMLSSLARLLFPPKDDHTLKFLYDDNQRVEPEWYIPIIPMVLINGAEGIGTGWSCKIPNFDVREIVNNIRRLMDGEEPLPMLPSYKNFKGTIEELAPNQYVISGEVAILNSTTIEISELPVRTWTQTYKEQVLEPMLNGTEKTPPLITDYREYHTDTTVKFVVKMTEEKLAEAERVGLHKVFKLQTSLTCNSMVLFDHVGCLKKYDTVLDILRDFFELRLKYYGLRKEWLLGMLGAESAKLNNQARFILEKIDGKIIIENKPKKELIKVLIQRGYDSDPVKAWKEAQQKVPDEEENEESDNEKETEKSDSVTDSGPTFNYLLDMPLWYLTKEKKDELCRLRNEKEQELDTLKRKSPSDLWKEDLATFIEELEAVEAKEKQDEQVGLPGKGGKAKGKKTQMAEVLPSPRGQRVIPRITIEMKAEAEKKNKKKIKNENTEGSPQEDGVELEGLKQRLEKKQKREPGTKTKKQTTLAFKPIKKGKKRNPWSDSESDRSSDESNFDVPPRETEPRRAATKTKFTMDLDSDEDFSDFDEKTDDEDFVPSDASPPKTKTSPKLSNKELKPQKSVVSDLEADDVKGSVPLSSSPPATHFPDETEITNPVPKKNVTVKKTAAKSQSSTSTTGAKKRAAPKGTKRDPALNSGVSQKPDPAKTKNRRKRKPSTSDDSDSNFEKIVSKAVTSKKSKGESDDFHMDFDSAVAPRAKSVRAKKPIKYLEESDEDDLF

[14] = Stability of the compound in PBS buffer at pH 7.4; type: physicochemical
[15] = system: A549; assay: Cell cycle arrest in human A549 cells assessed as decrease in G0/G1 phase at 10 uM after 36 hrs by propidium iodide staining-based flow cytometry; type: functional
[16] = Stability of the compound in PBS buffer at pH 7.4 assessed as compound remaining after 6 hrs by HPLC method; type: physicochemical; details: read-out: Stability
[17] = system: A549; assay: Antitumor activity against human A549 cells xenografted in BALB/C nude mouse assessed as tumor growth inhibition at 0.5 mg/kg, ip administered for 5 days measured after day 30 to 33 relative to vehicle-treated control; type: functional, organism-based; parameters: dose 0.5 mg/kg

With CC[C@]1(O)c2cc3n(c(=O)c2CO[C@@H]1F)Cc1cc2ccccc2nc1-3 [(20S,21R)-FLUOROCAMPTOTHECIN] the IC50 [1] was 50.9 µM, the IC50 [2] was 46.2 µM and the IC50 [3] was over 100 µM. For the same compound, the inhibition [4] was “Active”.

CC[C@]1(O)c2cc3n(c(=O)c2CO[C@H]1F)Cc1cc2cc(OC)ccc2nc1-3 showed an IC50 [1] of 6.15 µM, an IC50 [2] of 41.7 µM and an IC50 [3] of over 100 µM. The inhibition [4] was “Active”.

Compound CC[C@]1(O)c2cc3n(c(=O)c2CO[C@H]1F)Cc1cc2c([N+](=O)[O-])cccc2nc1-3 has an IC50 [1] of 1.02 µM, an IC50 [2] of 11.3 µM and an IC50 [3] of 53 µM. For the same compound, the inhibition [4] was “Active”.

Work on CCc1c2c(nc3ccccc13)-c1cc3c(c(=O)n1C2)CO[C@@H](F)[C@]3(O)CC yielded an IC50 [1] of 8.53 µM, an IC50 [2] of 12.7 µM and an IC50 [3] of 10.9 µM.

CCCc1c2c(nc3ccccc13)-c1cc3c(c(=O)n1C2)CO[C@@H](F)[C@]3(O)CC showed an IC50 [1] of 0.82 µM, an IC50 [2] of 2.54 µM and an IC50 [3] of 2.32 µM.

In the case of CC[C@]1(O)c2cc3n(c(=O)c2CO[C@H]1F)Cc1c-3nc2ccccc2c1C1CCCCC1 [(20S,21S)-7-CYCLOHEXYLFLUOROCAMPTOTHECIN], the Activity [5] is reported as “Non-toxic”, the inhibition in vivo at 4 mg/kg [6] is reported as 63% and the TGI [7] is reported as “Dose-dependent effect”. For the same compound, the inhibition in vivo at 2 mg/kg [8] was 34%, the Activity [9] was “Active” and the Activity [10] was 94.11%. The Activity [11] was “Active”, the inhibition [12] was “inactive” and the inhibition [13] was “inactive”. For the same compound, the Stability [14] was “Stable”, the IC50 [1] was 0.07 µM and the IC50 [2] was 0.71 µM. For the same compound, the IC50 [3] was 0.41 µM, the inhibition [4] was “Active” and the Activity [15] was “Active”.

With CC[C@]1(O)c2cc3n(c(=O)c2CO[C@H]1F)Cc1c-3nc2ccccc2c1C1CCCC1 the IC50 [1] was 19.8 µM, the IC50 [2] was 4.14 µM and the IC50 [3] was 11.8 µM.

In the case of CC[C@]1(O)c2cc3n(c(=O)c2CO[C@H]1F)Cc1cc2ccccc2nc1-3 [(20S,21S)-FLUOROCAMPTOTHECIN], the IC50 [1] is reported as 6.35 µM, the remaining at 6 h [16] is reported as 96% and the IC50 [2] is reported as 9.95 µM. For the same compound, the IC50 [3] was 58.3 µM and the inhibition [4] was “Active”.

In the case of CC[C@@]1(O)C(=O)OCc2c1cc1n(c2=O)Cc2cc3c(CN(C)C)c(O)ccc3nc2-1 [TOPOTECAN], the Activity [5] is reported as “Toxic” and the TGI [17] is reported as “Active”.

CCc1c2c(nc3ccc(OC)cc13)-c1cc3c(c(=O)n1C2)CO[C@@H](F)[C@]3(O)CC gave an IC50 [1] of 1.45 µM, an IC50 [2] of 6.35 µM and an IC50 [3] of 12.7 µM.

In the case of CCCCc1c2c(nc3ccccc13)-c1cc3c(c(=O)n1C2)CO[C@@H](F)[C@]3(O)CC, the IC50 [1] is reported as 0.27 µM, the IC50 [2] is reported as 17.7 µM and the IC50 [3] is reported as 3.53 µM. The inhibition [4] was “Active”.

Work on CC[C@]1(O)c2cc3n(c(=O)c2CO[C@H]1F)Cc1c-3nc2ccccc2c1C1CCC1 yielded an IC50 [1] of 95.4 µM, an IC50 [2] of 1 µM and an IC50 [3] of 15.8 µM.

Work on CC[C@]1(O)c2cc3n(c(=O)c2CO[C@H]1F)Cc1c-3nc2ccccc2c1C1CC1 yielded an IC50 [1] of 3.39 µM, an IC50 [2] of 15.5 µM and an IC50 [3] of 9.41 µM.

CC[C@@]1(O)C(=O)OCc2c1cc1n(c2=O)Cc2cc3ccccc3nc2-1 [CAMPTOTHECIN] gave an IC50 [1] of 0.07 µM, a remaining at 6 h [16] of 42.7% and an IC50 [2] of 0.65 µM. For the same compound, the IC50 [3] was under 0.001 µM.

CC[C@]1(O)c2cc3n(c(=O)c2CO[C@H]1F)Cc1c-3nc2ccccc2c1C(C)C gave an IC50 [1] of 65.7 µM, an IC50 [2] of over 100 µM and an IC50 [3] of 41.1 µM.

CC[C@]1(O)c2cc3n(c(=O)c2CO[C@H]1F)Cc1c-3nc2ccccc2c1C gave an IC50 [1] of 1.46 µM, an IC50 [2] of 4.23 µM and an IC50 [3] of 8.66 µM.
